Assay results from patent publication US4622319A, “Methods of using PAF-antagonistic diazepines” (Boehringer Ingelheim KG, priority 1984, dated 1986).
pIC50: −log10 of the molar value.

Each compound was assayed on PAF-induced aggregation of human thrombocytes (assay: Inhibition of PAF-induced blood platelet aggregation in vitro). Settings: human thrombocyte-rich plasma, aggregation induced with PAF 5×10^-8 M, concentration giving 50% inhibition of aggregation, read-out: PAF-Antag. IC50.
Format: cell-based
Description: 1. Inhibition of blood platelet aggregation in vitro
The PAF-induced aggregation of human thrombocytes in vitro is used to determine PAF-antagonistic activity. To obtain thrombocyte-rich plasma (TRP), blood is taken from an uncongested vein using a plastic syringe containing 3.8% sodium citrate solution. The ratio of sodium citrate solution to blood is 1:9. After careful mixing the citrate blood is centrifuged for 20 minutes at 150 g (1200 rpm). The thrombocyte aggregation is measured using the method devised by Born and Cross (G. V. R. Born and M. J. Cross, J. Physiol. 168, 178 (1963)), by adding an aggregation initiator (PAF) to the TRP with constant stirring.
The test substance is added 2 to 3 minutes before aggregation is initiated in a volume of 10 μl. Either distilled water, ethanol and/or dimethylsulphoxide (each in suitable concentrations) can be used as solvent.
Control mixtures contain corresponding volumes of these solvents. After the initial absorption has been recorded (2 to 3 minutes) aggregation is induced with PAF (5×10^-8 M).
The maximum of the first aggregation wave is used to assess the effects of the substance. The PAF-induced maximum absorption rate (=maximum aggregation×100%) is tested at the same time in a parallel mixture (=control mixture in one of the channels of the two-channel aggregometer) as each test mixture (second channel) and is used as a 100% value.
The aggregation value attained under the effect of the test substance is given as a percentage of the control value, i.e. less than 100% in the case of an inhibition of aggregation and over 100% in the case of an increase.
Each test substance is investigated at concentrations of from 10^-3 to 10^-8 M with a random sampling of n=4 with regard to an inhibitory effect on the PAF-induced thrombocyte aggregation. Then a concentration-activity curve is drawn up using 3 concentrations and the IC50 is determined (concentration giving a 50% inhibition of aggregation).
Compound `COc1ccccc1N1C(=O)CC(=O)N(C)c2ccc(Cl)cc21` [Compound 8] has a pIC50 of 3.54.
For `CN1CCC(=O)N(c2ccccc2)c2cc(Br)ccc21` [Compound 13], the pIC50 was < 3.00.
`CN1C(=O)CC(=O)N(c2ccccc2Cl)c2cc(Cl)ccc21` [Compound 5] was tested, and the pIC50 was 3.66.
For `CN1C(=O)CC(=O)N(c2ccccc2C(F)(F)F)c2cc(Cl)ccc21` [Compound 6], the pIC50 was 4.18.
With `O=C1CCN(CCO)c2ccc(Cl)cc2N1c1ccccc1` [Compound 14] the pIC50 was 3.55.
For `CCN1CCC(=O)N(c2ccccc2)c2cnccc21` [Compound 15], the pIC50 was < 4.00.
`CCn1nc(C)c2c1N(c1ccccc1)C(=O)CC(=O)N2` [Compound 17] was tested, and the pIC50 was < 4.00.
With `CN1C(=O)CC(=O)N(c2ccccc2)c2cnccc21` [Compound 16] the pIC50 was < 4.30.
For `CN1C(=O)CC(=O)N(c2ccccn2)c2cc(Br)ccc21` [Compound 9], the pIC50 was < 3.00.
In the case of `O=C1CC(=O)N(c2ccccc2)c2cc(Br)ccc2N1`, the pIC50 was 3.33.
Work on `CN1C(=O)CC(=O)N(c2ccccc2)c2cc(C(F)(F)F)ccc21` [Compound 2, Triflubazam, reference compound] yielded a pIC50 of 3.70.
With `CN1C(=O)CC(=O)N(c2ccccc2Cl)c2cc([N+](=O)[O-])ccc21` [Compound 10] the pIC50 was 3.51.
`CN1C(=O)CC(=O)N(c2ccccc2)c2ccc(Cl)cc21` [Compound 11] gave a pIC50 of 3.68.
With `CCN1C(=O)CC(=O)N(c2ccccc2)c2cc(Cl)ccc21` [Compound 4] the pIC50 was 4.01.
For `CN1C(=O)CC(=O)N(c2ccccc2)c2cc(Cl)ccc21` [Compound 1, Clobazam, reference compound], the pIC50 was 3.60.
In the case of `CN1C(=O)CC(=O)N(c2ccccc2F)c2ccccc21` [Compound 7], the pIC50 was 4.02.
In the case of `CC1C(=O)Nc2ccc(Br)cc2N(c2ccccc2)C1=O` (centres unmarked) [Compound 12], the pIC50 was 3.46.
